This series deals with rodent lifetime carcinogenesis bioassay, tumor incidence TD50. Kind of series: carcinogenic potency in animals, long-term in vivo studies, CPDB compilation (AID 1745844).

Where “and” joins values, the source holds several entries; their conditions need not be identical. Equal values may be shown once. Calls of active or inactive are those of the source. How the calls were made is not given here.

Experimental findings from PubChem BioAssay AID1745844 (Carcinogenic Potency Database (CPDB), 2022) are described below.

Consider `Nc1ccc2c(c1)C(=O)c1ccccc1C2=O`, for which the TD50 is 1490 mg/kg/day (mouse, strain B6C3F1, females, in feed, site: all sites + liver, lesion: lymphoma + hepatocellular carcinoma, dosed 79 weeks, study length 94 weeks); 3160 mg/kg/day (mouse, strain B6C3F1, females, in feed, site: all sites, lesion: lymphoma, dosed 79 weeks, study length 94 weeks); 1620 mg/kg/day (mouse, strain B6C3F1, females, in feed, site: any site (literature study), lesion: several types, types named in the paper, dosed 79 weeks, study length 94 weeks); 2820 mg/kg/day (mouse, strain B6C3F1, females, in feed, site: liver, lesion: hepatocellular adenoma + hepatocellular carcinoma + neoplastic nodule, dosed 79 weeks, study length 94 weeks); 2820 mg/kg/day (mouse, strain B6C3F1, females, in feed, site: liver, lesion: hepatocellular carcinoma, dosed 79 weeks, study length 94 weeks); 33400 mg/kg/day (mouse, strain B6C3F1, females, in feed, site: lung, lesion: alveolar/bronchiolar adenoma + alveolar/bronchiolar carcinoma, dosed 79 weeks, study length 94 weeks). Besides, the TD50 is, setting by setting: (mouse, strain B6C3F1, males, in feed, site: any site (literature study), lesion: several types, types named in the paper, dosed 79 weeks, study length 93 weeks) 952 mg/kg/day; (mouse, strain B6C3F1, males, in feed, site: liver, lesion: hepatocellular adenoma + hepatocellular carcinoma + neoplastic nodule, dosed 79 weeks, study length 93 weeks) 798 mg/kg/day; (mouse, strain B6C3F1, males, in feed, site: liver, lesion: hepatocellular adenoma + hepatocellular carcinoma, dosed 79 weeks, study length 93 weeks) 798 mg/kg/day; (mouse, strain B6C3F1, males, in feed, site: liver, lesion: hepatocellular carcinoma, dosed 79 weeks, study length 93 weeks) 755 mg/kg/day; (mouse, strain B6C3F1, males, in feed, site: lung, lesion: alveolar/bronchiolar adenoma + alveolar/bronchiolar carcinoma, dosed 79 weeks, study length 93 weeks) 19400 mg/kg/day; (rat, strain Fischer 344, females, in feed, site: any site (literature study), lesion: several types, types named in the paper, dosed 78 weeks, study length 109 weeks) 124 mg/kg/day (inactive). For the same compound, the TD50 is, setting by setting: (rat, strain Fischer 344, males, in feed, site: any site (literature study), lesion: several types, types named in the paper, dosed 78 weeks, study length 106 weeks) 759 mg/kg/day; (rat, strain Fischer 344, males, in feed, site: liver, lesion: hepatocellular adenoma + hepatocellular carcinoma + neoplastic nodule, dosed 78 weeks, study length 106 weeks) 101 mg/kg/day; (rat, strain Fischer 344, males, in feed, site: liver, lesion: hepatocellular carcinoma + neoplastic nodule, dosed 78 weeks, study length 106 weeks) 101 mg/kg/day; (rat, strain Fischer 344, males, in feed, site: liver, lesion: hepatocellular carcinoma, dosed 78 weeks, study length 106 weeks) 268 mg/kg/day.
As for `O=NN1CCOC(O)C1` (stereo not given), the TD50 (rat, strain Fischer 344, females, in drinking water, site: liver, lesion: hepatocellular carcinoma, dosed 50 weeks, study length 122 weeks) is 14.9 mg/kg/day (inactive).
On to `O=[N+]([O-])c1ccc2c(c1)Cc1ccccc1-2`, for which the TD50 was 0.285 mg/kg/day (rat, strain Wistar, males, in feed, site: forestomach, lesion: several types, types named in the paper, dosed 47 weeks, study length 104 weeks); 1.12 mg/kg/day (rat, strain Wistar, males, in feed, site: forestomach, lesion: squamous-cell carcinoma, dosed 47 weeks, study length 104 weeks); 2.35 mg/kg/day (rat, strain Wistar, males, in feed, site: kidney, lesion: cortical carcinoma, dosed 47 weeks, study length 104 weeks); 3 mg/kg/day (rat, strain Wistar, males, in feed, site: kidney, lesion: several types, types named in the paper, dosed 47 weeks, study length 104 weeks); 2.1 mg/kg/day (rat, strain Wistar, males, in feed, site: liver, lesion: hepatocellular carcinoma, dosed 47 weeks, study length 104 weeks).
`CN1C(C(=O)Nc2ccccn2)=C(O)c2sc(Cl)cc2S1(=O)=O`: the carcinogen call is “negative (inactive)” (rat, strain Sprague-Dawley, females, by gavage, site: any site (literature study), lesion: several types, types named in the paper, dosed 104 weeks, study length 104 weeks); “negative (inactive)” (rat, strain Sprague-Dawley, females, by gavage, site: kidney, lesion: one or several types, types not named, dosed 52 weeks, study length 52 weeks); “negative (inactive)” (rat, strain Sprague-Dawley, males, by gavage, site: any site (literature study), lesion: several types, types named in the paper, dosed 104 weeks, study length 104 weeks); “negative (inactive)” (rat, strain Sprague-Dawley, males, by gavage, site: kidney, lesion: one or several types, types not named, dosed 52 weeks, study length 52 weeks); “negative (inactive)” (rat, strain Sprague-Dawley, males, by gavage, site: liver, lesion: several types, types named in the paper, dosed 104 weeks, study length 104 weeks). For the setting “rat, strain Sprague-Dawley, females, by gavage, site: liver, lesion: hepatocellular adenoma, dosed 104 weeks, study length 104 weeks”, the TD50 was 13.2 mg/kg/day (inactive).
Take `CCCCCCCCCCCCN(C)N=O`: the TD50 runs as follows: (rat, strain Fischer 344, females, by gavage, site: lung, lesion: one or several types, types not named, dosed 30 weeks, study length 65 weeks) 1.32 mg/kg/day; (rat, strain Fischer 344, females, by gavage, site: urinary bladder, lesion: one or several types, types not named, dosed 30 weeks, study length 65 weeks) 0.656 mg/kg/day; (rat, strain Fischer 344, males, by gavage, site: all sites, lesion: leukemia, dosed 30 weeks, study length 112 weeks) 0.97 mg/kg/day; (rat, strain Fischer 344, males, by gavage, site: forestomach, lesion: carcinoma, dosed 30 weeks, study length 112 weeks) 5.07 mg/kg/day; (rat, strain Fischer 344, males, by gavage, site: forestomach, lesion: papilloma, dosed 30 weeks, study length 112 weeks) 13.9 mg/kg/day; (rat, strain Fischer 344, males, by gavage, site: liver, lesion: hepatocellular carcinoma, dosed 30 weeks, study length 112 weeks) 8.98 mg/kg/day. The TD50 by setting is: (rat, strain Fischer 344, males, by gavage, site: lung, lesion: adenocarcinoma, dosed 30 weeks, study length 112 weeks) 6.54 mg/kg/day; (rat, strain Fischer 344, males, by gavage, site: lung, lesion: adenoma, dosed 30 weeks, study length 112 weeks) 28.5 mg/kg/day; (rat, strain Fischer 344, males, by gavage, site: pancreatic islets, lesion: islet-cell carcinoma, dosed 30 weeks, study length 112 weeks) 2.75 mg/kg/day; (rat, strain Fischer 344, males, by gavage, site: urinary bladder, lesion: transitional-cell carcinoma, dosed 30 weeks, study length 112 weeks) 0.487 mg/kg/day. Further, the carcinogen call (rat, strain Fischer 344, males, by gavage, site: any site (literature study), lesion: several types, types named in the paper, dosed 30 weeks, study length 112 weeks) was “positive” and the carcinogen call (rat, strain Fischer 344, males, by gavage, site: urinary bladder, lesion: transitional-cell carcinoma, dosed 28 weeks, study length 66 weeks) is “positive”.
`Cc1cc(O)c2c(c1)C(=O)c1cc(O)cc(O)c1C2=O`: the TD50 reads like this: (mouse, strain B6C3F1, females, in feed, site: any site (literature study), lesion: several types, types named in the paper, dosed 104 weeks, study length 104 weeks) 548 mg/kg/day (inactive); (mouse, strain B6C3F1, females, in feed, site: lung, lesion: alveolar/bronchiolar adenoma + alveolar/bronchiolar carcinoma, dosed 104 weeks, study length 104 weeks) 65800 mg/kg/day; (mouse, strain B6C3F1, males, in feed, site: kidney, lesion: tubule adenoma + tubule carcinoma, dosed 104 weeks, study length 104 weeks) 965 mg/kg/day and 885 mg/kg/day; (rat, strain Fischer 344, females, in feed, site: Zymbal's gland, lesion: carcinoma, dosed 104 weeks, study length 104 weeks) 1970 mg/kg/day; (rat, strain Fischer 344, females, in feed, site: any site (literature study), lesion: several types, types named in the paper, dosed 104 weeks, study length 104 weeks) 797 mg/kg/day; (rat, strain Fischer 344, females, in feed, site: liver, lesion: hepatocellular adenoma + hepatoblastoma + hepatocellular carcinoma, dosed 104 weeks, study length 104 weeks) 4300 mg/kg/day. Besides, the carcinogen call (rat, strain Fischer 344, males, in feed, site: any site (literature study), lesion: several types, types named in the paper, dosed 104 weeks, study length 104 weeks) was “negative (inactive)”.
For the compound `CCNC(=O)N(C=O)CCN(C)C`, the TD50 by setting is: (rat, strain Fischer 344, females, by gavage, site: cervix, lesion: adenocarcinoma, dosed 37 weeks, study length 102 weeks) 5.35 mg/kg/day; (rat, strain Fischer 344, females, by gavage, site: lung, lesion: one or several types, types not named, dosed 37 weeks, study length 102 weeks) 5.35 mg/kg/day; (rat, strain Fischer 344, females, by gavage, site: mammary gland, lesion: adenocarcinoma, dosed 37 weeks, study length 102 weeks) 3.39 mg/kg/day; (rat, strain Fischer 344, females, by gavage, site: mammary gland, lesion: adenoma, dosed 37 weeks, study length 102 weeks) 11.2 mg/kg/day; (rat, strain Fischer 344, females, by gavage, site: mammary gland, lesion: fibroadenoma, dosed 37 weeks, study length 102 weeks) 0.704 mg/kg/day; (rat, strain Fischer 344, females, by gavage, site: uterus, lesion: adenoma, dosed 37 weeks, study length 102 weeks) 11.2 mg/kg/day. Moreover, the TD50 was 1.41 mg/kg/day (rat, strain Fischer 344, females, by gavage, site: uterus, lesion: endometrial polyp, dosed 37 weeks, study length 102 weeks); 2.37 mg/kg/day (rat, strain Fischer 344, males, by gavage, site: lung, lesion: one or several types, types not named, dosed 37 weeks, study length 102 weeks); 1.92 mg/kg/day (rat, strain Fischer 344, males, by gavage, site: skin, lesion: keratoacanthoma, dosed 37 weeks, study length 102 weeks).
Turning to `CCOC(=O)C(C)(C)Oc1ccc(Cl)cc1`, the TD50 is, setting by setting: (mouse, strain AP Alderly Park, females, in feed, site: liver, lesion: hepatocellular adenoma, dosed 78 weeks, study length 78 weeks) 1480 mg/kg/day (inactive); (mouse, strain AP Alderly Park, males, in feed, site: liver, lesion: hepatocellular adenoma, dosed 78 weeks, study length 78 weeks) 313 mg/kg/day (inactive); (mouse, strain AP Alderly Park, males, in feed, site: liver, lesion: hepatocellular carcinoma, dosed 78 weeks, study length 78 weeks) 9710 mg/kg/day (inactive); (mouse, strain C57BL/10J, females, in feed, site: liver, lesion: hepatocellular adenoma, dosed 78 weeks, study length 78 weeks) 14700 mg/kg/day (inactive); (mouse, strain C57BL/10J, males, in feed, site: liver, lesion: hepatocellular adenoma, dosed 78 weeks, study length 78 weeks) 3640 mg/kg/day (inactive); (rat, strain Fischer 344, males, in feed, site: liver, lesion: hepatocellular carcinoma, dosed 121 weeks, study length 121 weeks) 169 mg/kg/day. In addition, the TD50 (rat, strain Fischer 344, males, in feed, site: pancreas, lesion: acinar-cell carcinoma, dosed 121 weeks, study length 121 weeks) is 1300 mg/kg/day. Moreover, the carcinogen call is, setting by setting: (mouse, strain C57BL/10J, females, in feed, site: lung, lesion: one or several types, types not named, dosed 78 weeks, study length 78 weeks) “negative (inactive)”; (mouse, strain C57BL/10J, males, in feed, site: lung, lesion: one or several types, types not named, dosed 78 weeks, study length 78 weeks) “negative (inactive)”.

One may read the TD50 as the 50% point of the dose-response relation for the toxic effect studied.
